Earlier results as cited in patent US20170165627A1, “MICROENCAPSULATION PROCESS” (ENCAPSYS, LLC, priority 2015, published 2017).
Converted amounts (≈) assume the structure as drawn.

Details: @ 25° C.

Row | Solubility in water | Compound
1 | 40.68 mg/mL | Polyethylene glycol 200 diacrylate [SR259]
2 | Water soluble | Polyethylene glycol 400 diacrylate [SR344]
3 | Water soluble | polyethylene glycol (600) diacrylate [SR610]

Row | Compound | Solubility in water
4 | C=CC(=O)OCCOCCOCC [SR256, 2-(2-ethoxyethoxy) ethyl acrylate] | 25.33 mg/mL (≈ 135 mM)

Details: temperature at which the initiator has a 10 hour half-life

Row | Compound | 10 hour ½ life at (temperature)
5 | CC(C)(N=NC(C)(C)C(=N)N)C(=N)N.Cl [Example V-50, 2,2′-azobis(2-amidinopropane) hydrochloride] | ½ life at 56 °C
6 | CC(C)(N=NC(C)(C)C(=O)NCCO)C(=O)NCCO [VA-086, 2,2′-Azobis[2-methyl-N-(2-hydroxyethyl)propionamide]] | 10 hour ½ life at 86 °C
7 | CCC(C)(C#N)N=NC(C)(C#N)CC (centres unmarked) [Vazo-67, 2,2′-azobis(2-methylbutyronitrile)] | 67 °C
8 | N#CC1(N=NC2(C#N)CCCCC2)CCCCC1 [Vazo-88, 1,1′-Azobis(cyclohexanecarbonitrile)] | 88 °C
